# Experimental data reported in patent publication US11478426B2, “Abuse deterrent immediate release capsule dosage forms” (SpecGX LLC, priority 2018, dated 2022).
# Tested on: Slug species
# Test: Slug irritation test (mucus production as model of nasal irritation)
# Format: in vivo
# Settings: 15 min exposure, mean ± SEM (n)
# Procedure: The organic acid of the capsule contents was tested for potential nasal irritation using a slug irritation model.
Compound,Mucus Production (% of Body Weight) (dose 0.3 mg),Mucus Production (% of Body Weight) (dose 1.0 mg),Mucus Production (% of Body Weight) (dose 3.0 mg),Mucus Production (% of Body Weight) (dose 5.0 mg),Mucus Production (% of Body Weight) (dose 10 mg),Mucus Production (% of Body Weight) (dose 15 mg),Mucus Production (% of Body Weight) (dose 20 mg),Mucus Production (% of Body Weight) (dose 1%)
CCCCCCCCCCCCOS(=O)(=O)[O-].[Na+] [Sodium Lauryl Sulfate],5.9 ± 2.0 (6) % of Body Weight,9.5 ± 2.1 (9) % of Body Weight,13.4 ± 2.6 (3) % of Body Weight,9.8 ± 2.1 (6) % of Body Weight,16.6 ± 0.9 (3) % of Body Weight,22.7 ± 4.5 (3) % of Body Weight,26.2 ± 3.8 (3) % of Body Weight,–
O=C(O)C(O)C(O)C(=O)O (stereo not shown) [Tartaric Acid],–,–,2.8 ± 2.4 (3) % of Body Weight,7.2 ± 0.7 (6) % of Body Weight,10.0 ± 1.3 (3) % of Body Weight,33.6 ± 1.1 (6) % of Body Weight,24.6 ± 2.8 (3) % of Body Weight,–
Benzalkonium Chloride [Benzalkonium Chloride (BAC)],–,–,–,–,–,–,–,24.7 ± 2.1 (3) % of Body Weight
